Columns and labels:
G1 APOL1 = target: T1, G1 APOL1 (Homo sapiens, UniProt O14791, I384M/S342G); test: Acute APOL1 Thallium Assay with Inducible Stable Clones of HEK 293 Cells; type: cell-based; conditions: HEK 293 inducible stable clones, G1 APOL1; read-out: Thallium Assay (IC50)
T1 construct: expressed in transfected cells
T1 sequence (O14791 28-398 S342G/I384M): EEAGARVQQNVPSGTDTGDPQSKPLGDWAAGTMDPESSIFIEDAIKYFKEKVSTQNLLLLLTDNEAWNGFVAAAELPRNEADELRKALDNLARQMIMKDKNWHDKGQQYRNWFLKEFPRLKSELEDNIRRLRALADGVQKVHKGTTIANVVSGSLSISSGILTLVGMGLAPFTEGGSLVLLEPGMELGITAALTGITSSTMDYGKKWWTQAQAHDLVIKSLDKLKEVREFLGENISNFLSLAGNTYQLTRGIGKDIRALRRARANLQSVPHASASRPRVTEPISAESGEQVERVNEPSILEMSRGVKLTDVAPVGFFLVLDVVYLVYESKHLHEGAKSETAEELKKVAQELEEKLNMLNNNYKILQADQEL
Outline: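 Pore activity was read as the fluorescence increase from Tl+ entering cells loaded with an AM-ester thallium indicator dye. The cells were tetracycline-inducible HEK293 T-Rex expressing G1 APOL1 (clone DC3.25), induced when plated at 26000 per well and incubated at 37° C.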

APOL1 G1 Protein = target: T2, APOL1 G1 Protein (Homo sapiens, UniProt O14791, I384M/S342G); test: Trypanosoma brucei brucei Lysis Assay Using APOL1 Recombinant Protein (AlamarBlue viability); type: cell-based; conditions: read-out: Trypanosomal Assay (IC50)
T2 sequence (O14791 28-398 S342G/I384M): T1 sequence (O14791 28-398 S342G/I384M)
Description: Trypanosoma brucei brucei is a blood stream parasite to which human, gorillas and baboon are immune due to the presence of the APOL1 protein in their HDL particles. The protein is uptaken by the parasite via the TbHpHb receptor located in its flagellar pocket and is bonded by the Hpr protein contained in the HDL particles which triggers the receptor endocytosis by the parasite.
Following endocytosis, the formed vesicle containing the HDL particle matures from early to late endosome, and subsequently to lysosome. The concomitant pH change in the lumen of the vesicle triggers the insertion of the APOL1 protein into the membrane of the late endosome/lysosome and hereby triggers lysosomal membrane permeabilization and as a further downstream event, trypanosome lysis. Trypanosoma brucei brucei is sensitive to lysis by all three APOL1 variants (G0, G1, and G2).
The Trypanosoma brucei brucei lysis assay is a lysis assay of the parasite using recombinant APOL1 protein variant followed by a fluorescent detection method of viability by the addition of AlamarBlue reagent to the assay well, a general metabolic redox indicator (AlamarBlue assay).
Briefly, the AlamarBlue active compound, the resazurin, a blue, water soluble, non-toxic and cell permeable molecule, which can be followed by absorbance, is reduced by various metabolic pathways into resorufin, a red compound which can be followed by either absorbance or fluorescence. The assay allows the calculation of the percent viability (percent of living Trypanosomes remaining in each well) at the end of a lysis relative to the untreated condition by interpolation of fluorescent values (FLU) on a standard curve with a known amount of seeded trypanosome/well.
Trypanosoma brucei brucei (ATCC, Cat. No. PRA-382) • Lister 427 VSG 221 bloodstream form.
Thaw/Expansion Media (ATCC Medium 2834 Modified HMI-9 Medium)
Assay Media (No Phenol Red/No FBS): Make on Day of Use
Hypoxanthine Stock (100×)-9 (10×)
Equipment • E1-Clip Tip pipette 12 channel adjustable 2-125 μL, Cat. No. 4672070BT • ThermoFisher MultiDrop 384, Cat. No. 5840300 • Multidrop • Agilent Bravo, Cat. No. G5409A • Bravo • SpectraMax M5
Trypanosoma brucei brucei Culture
Step 2, Day 4 • Centrifuge at 800×g for 5 minutes at room temperature. • Resuspend in 1 mL media. • Make a 1:25 fold dilution (10 μL/240 μL media). • Count on a hemocytometer (after adding parasites). • Let sit for 1-2 minutes for the parasites to settle. • Count should be approximately 100 viable motile parasites/16 grid or approximately 25×10^6 parasites/flask. • Passage the parasites by adding 1×10^6 parasites/T75 flask in 20 mL media. • Passage the parasites by adding 2.33×10^6 parasites/T175 flask in 46.6 mL media. • For every T75 flask should make enough for approximately 1.5×384 well assay plates. • For every T175 flask should make enough for approximately 3.8×384 well assay plates.
Step 3, Day 6 • Centrifuge at 800×g for 5 minutes. • Resuspend in 3 mL assay media (No phenol red, no FBS) per 75 starting flask. • Resuspend in 7 mL assay media (No phenol red, no FBS) per 175 flask • Make a 1:25 fold dilution. • Count by hemocytometer. • Every T75 flask set up should have approximately 75×10^6 parasites/flask (verify doubling time=8.7 hours±1 hour). • Every T175 flask set up should have approximately 175×10^6 parasites/flask (verify doubling time=8.7 hours±1 hour). • Require 46×10^6 parasites per 384 well plate (at 120,000 parasites per well). […]

Row | Compound | IC50 (G1 APOL1) | IC50 (APOL1 G1 Protein)
1 | O=C(CCc1c(-c2ccc(F)cc2)[nH]c2c(F)cc(F)cc12)N1CC(CO)C1 [Compound 104] | > 1 µM | > 1 µM
2 | O=C(CCc1c(-c2ccc(F)cc2)[nH]c2c(F)cc(F)cc12)NCc1cnn(C2CC(F)(F)C2)c1 [Compound 176] | > 1 µM | > 1 µM
3 | O=C(CCc1c(-c2ccc(F)cc2)[nH]c2c(F)cc(F)cc12)NCc1ccc(Cl)s1 [Compound 130] | > 1 µM | > 1 µM
4 | NC(=O)CNC(=O)CCc1c(-c2ccc(F)cc2)[nH]c2c(F)cc(F)cc12 [Compound 111] | > 1 µM | > 1 µM
5 | COCCN(C)C(=O)CCc1c(-c2ccc(F)cc2)[nH]c2c(F)cc(F)cc12 [Compound 156] | > 1 µM | > 1 µM
6 | CC1(O)CCN(C(=O)CCc2c(-c3ccc(F)cc3)[nH]c3ccc(F)cc23)C1 (racemic) [Compound 88] | > 1 µM | > 1 µM
7 | Nc1ccnn1C(=O)CCc1c(-c2ccc(F)cc2)[nH]c2ccc(F)cc12 [Compound 6] | 0.25 to 1 µM | 0.25 to 1 µM
8 | Cc1cc(NC(=O)CCc2c(-c3ccc(F)cc3)[nH]c3c(F)cc(F)cc23)no1 [Compound 180] | > 1 µM | > 1 µM
9 | O=C(CCc1c(-c2ccc(F)cc2)[nH]c2c(F)cc(F)cc12)N[C@H]1CC[C@@H](O)C1 [Compound 179] | > 1 µM | > 1 µM
10 | CS(=O)(=O)CNC(=O)CCc1c(-c2ccc(F)cc2)[nH]c2c(F)cc(F)cc12 [Compound 173] | > 1 µM | > 1 µM
11 | CN(CCNC(=O)OC(C)(C)C)C(=O)CCc1c(-c2ccc(F)cc2)[nH]c2ccc(F)cc12 [Compound 72] | > 1 µM | > 1 µM
12 | O=C(CCc1c(-c2ccc(F)cc2)[nH]c2c(F)cc(F)cc12)N[C@H]1COC[C@@H]1O [Compound 181] | > 1 µM | > 1 µM
13 | NC(=O)[C@H](CO)NC(=O)CCc1c(-c2ccc(F)cc2)[nH]c2c(F)cc(F)cc12 [Compound 123] | > 1 µM | > 1 µM
14 | CC1(NC(=O)CCc2c(-c3ccc(F)cc3)[nH]c3c(F)cc(F)cc23)CCOC1 (racemic) [Compound 152] | > 1 µM | > 1 µM
15 | N#CC(CO)NC(=O)CCc1c(-c2ccc(F)cc2)[nH]c2c(F)cc(F)cc12 (centres unmarked) [Compound 106] | < 0.25 µM | 0.25 to 1 µM
16 | CC(=O)NCC(F)(F)Cc1c(-c2ccc(F)cc2)[nH]c2c(F)cc(F)cc12 [Compound 515, N-[3-[5,7-difluoro-2-(4-fluorophenyl)-1H-indol-3-yl]-2,2-difluoro-propyl]acetamide] | 0.25 to 1 µM | 0.25 to 1 µM
17 | O=C(CCc1c(-c2ccccc2)[nH]c2ccc(F)cc12)NCCO [Compound 236] | > 1 µM | > 1 µM
18 | O=C(CCc1c(-c2ccc(F)cc2)[nH]c2c(F)cc(F)cc12)N1CCCC1CCO (centres unmarked) [Compound 136] | > 1 µM | > 1 µM
19 | O=C(CCc1c(-c2ccc(F)cc2)[nH]c2c(F)cc(F)cc12)N1CC[C@H]1CO [Compound 138] | > 1 µM | > 1 µM
20 | COCCNC(=O)CCc1c(-c2ccc(F)cc2)[nH]c2c(F)cc(F)cc12 [Compound 164] | > 1 µM | > 1 µM
21 | O=C(CCc1c(-c2ccc(F)cc2)[nH]c2c(F)cc(F)cc12)NCc1cn(CC(F)(F)F)cn1 [Compound 168] | > 1 µM | > 1 µM
22 | CC(C)(C)OC(=O)N1C[C@H](NC(=O)CCc2c(-c3ccc(F)cc3)[nH]c3ccc(F)cc23)[C@@H](O)C1 [Compound 76] | > 1 µM | > 1 µM
23 | CC1(NC(=O)CCc2c(-c3ccc(F)cc3)[nH]c3c(F)cc(F)cc23)CCOC1=O (racemic) [Compound 105] | > 1 µM | 0.25 to 1 µM

More lines, main results first:

Row | IC50 (G1 APOL1) | Compound | IC50 (APOL1 G1 Protein)
24 | 0.25 to 1 µM | CC(C)(CO)NC(=O)CCc1c(-c2ccc(F)cc2)[nH]c2ccc(F)cc12 [Compound 19] | 0.25 to 1 µM
25 | < 0.25 µM | C[C@H](CO)NC(=O)CCc1c(-c2ccc(F)cc2)[nH]c2c(F)cc(F)cc12 [Compound 120] | < 0.25 µM
26 | > 1 µM | O=C(CCc1c(-c2ccc(F)cc2)[nH]c2ccc(F)cc12)NC1COC1 [Compound 69] | > 1 µM
27 | > 1 µM | O=C(CCc1c(-c2ccc(F)cc2)[nH]c2ccc(F)cc12)N[C@H]1C[C@H](O)C1 [Compound 84] | > 1 µM
28 | > 1 µM | O=C(CCc1c(-c2ccc(F)cc2)[nH]c2ccc(F)cc12)NCCCO [Compound 85] | > 1 µM
29 | > 1 µM | CC(O)C(C)NC(=O)CCc1c(-c2ccc(F)cc2)[nH]c2ccc(F)cc12 (mixture of isomers) [Compound 35] | > 1 µM
30 | < 0.25 µM | O=C(CCc1c(-c2ccc(F)cc2)[nH]c2ccc(F)cc12)N[C@@H](CO)C(F)(F)F [Compound 1, 3-[5-fluoro-2-(4-fluorophenyl)-1H-indol-3-yl]-N-[(1S)-2,2,2-trifluoro-1-(hydroxymethyl)ethyl]propanamide] | < 0.25 µM
31 | 0.25 to 1 µM | CC[C@H](CO)NC(=O)CCc1c(-c2ccc(F)cc2)[nH]c2ccc(F)cc12 [Compound 89] | < 0.25 µM
32 | > 1 µM | O=C(CCc1c(-c2ccc(F)cc2)[nH]c2ccc(F)cc12)N[C@H]1C[C@@H](O)C1 [Compound 87] | > 1 µM
33 | 0.25 to 1 µM | O=C(CCc1c(-c2ccc(F)cc2)[nH]c2ccc(F)cc12)Nc1cc[nH]n1 [Compound 70] | > 1 µM
34 | 0.25 to 1 µM | CNC(=O)C(C)NC(=O)CCc1c(-c2ccc(F)cc2)[nH]c2ccc(F)cc12 (racemic) [Compound 11] | 0.25 to 1 µM
35 | > 1 µM | O=C(CCc1c(-c2ccc(F)cc2)[nH]c2ccc(F)cc12)N[C@H](CO)C(F)(F)F [Compound 50] | > 1 µM
36 | > 1 µM | O=C(CCc1c(-c2ccc(F)cc2)[nH]c2c(F)cc(F)cc12)NC[C@H](O)C(F)(F)F [Compound 114] | > 1 µM
37 | 0.25 to 1 µM | O=C(CCc1c(-c2ccc(F)cc2)[nH]c2ccc(F)cc12)NC(CO)CO [Compound 22] | 0.25 to 1 µM
38 | > 1 µM | CNC(=O)CCc1c(-c2ccc(F)cc2)[nH]c2ccc(F)cc12 [Compound 73] | > 1 µM
39 | > 1 µM | NC1CCC(NC(=O)CCc2c(-c3ccc(F)cc3)[nH]c3ccc(F)cc23)C1 (centres unmarked) [Compound 7] | > 1 µM
40 | > 1 µM | O=C(CCc1c(-c2ccc(F)cc2)[nH]c2ccc(F)cc12)NC1CONC1=O (centres unmarked) [Compound 63] | > 1 µM
41 | 0.25 to 1 µM | O=C(CCc1c(-c2ccc(F)cc2)[nH]c2ccc(F)cc12)NC1(CO)COC1 [Compound 32] | 0.25 to 1 µM
42 | > 1 µM | NC(=O)CCc1c(-c2ccc(F)cc2)[nH]c2ccc(F)cc12 [Compound 68] | > 1 µM
43 | > 1 µM | O=C(CCc1c(-c2ccc(F)cc2)[nH]c2ccc(F)cc12)N[C@@H]1CCC[C@H]1O [Compound 48] | > 1 µM
